In PubChem BioAssay AID1963966 (Molecular Pharmacology Branch, DTP, NCI, 2024):

Tested on: 935938-334-R-J1-PDC spheroids with HUVEC/MSC, viability
Assay: Anticancer human tumor 935938-334-R-J1-PDC patient-derived small intestine adenocarcinoma cell line growth inhibition [PI3K]
Conditions: for IC50: curve of first compound; for viability, T/C: stronger effect = lower value
Text: Combinatorial screen of targeted agents with the PI3K inhibitors inavolisib, alpelisib, duvelisib, and copanlisib in multi-cell type tumor spheroids
A high-throughput screen of multi-cell type tumor spheroids was designed to identify active combinations of targeted small molecules and PI3K pathway inhibitors. Complex spheroids include a stromal component modeled by human endothelial cells (HUVEC) and fibroblasts modeled by human mesenchymal stem cells (MSCs). The concentration ranges selected for each drug and investigational agent were based upon clinically achievable concentrations if the clinical Cmax of the agent was known.
Compounds. The drugs and investigational agents: inavolisib (NSC800729), alpelisib (NSC765974), duvelisib (NSC772469), copanlisib (NSC816437), ipatasertib (NSC767898), afuresertib (NSC778305), talazoparib (NSC767125), sapanisertib (NSC764658), selumetinib (NSC741078), tovorafenib (DAY101, NSC766906), vemurafenib (NSC761431), ravoxertinib (NSC781343), sotorasib (NSC818433), MRTX1133 (NSC 836407), abemaciclib (NSC 768073), palbociclib (NSC758247), venetoclax (NSC 766270), SY5609 (NSC837396), enzalutamide (NSC755605), and darolutamide (NSC825331), were obtained from the National Cancer Institute (NCI) Developmental Therapeutics Program Chemical Repository. The FDA-approved anticancer drug set is available from the NCI Developmental Therapeutics Program. […] The stock solutions were prepared in dimethyl sulfoxide (DMSO, Sigma-Aldrich, St. Louis, MO, cat. D2650) at 800-fold the tested concentration and stored at -70 degrees C prior to their use. All drugs and investigational agents were tested over a range starting from a high concentration at or near the clinical Cmax and decreasing in half-log increments. If the clinical Cmax for an agent had not been determined, the highest concentration tested was 10 microM.
Cell Culture. All cells were maintained in an incubator at 37 degrees C and 5% CO2 with 95% humidity. The PDC lines were cultured according to standard operating procedures established by the NCI PDMR (https://pdmr.cancer.gov/sops/default.htm). All PDCs were thawed and cultured in Matrigel-coated flasks prepared with a working solution of 1X Ham's F-12 nutrient mix, without supplementation (Invitrogen, Waltham, MA, cat. 11765054), 100 U/mL penicillin-streptomycin (Invitrogen, cat. 15140122), and 2.5% Matrigel (Corning Inc., Corning, NY, cat. 354248) for the first three passages. The 354836-022-R-J1-PDC, 475296-252-R-J1-PDC, and 997726-040-R-J2-PDC lines were cultured in 6A media, which includes advanced DMEM/F-12 (Thermo Fisher Scientific, cat. 12634028), 10 mM HEPES (Thermo Fisher Scientific, cat. 15630080), 1X GlutaMAX supplement (Thermo Fisher Scientific, cat. 35050061), 0.1 mg/mL primocin (InvivoGen, San Diego, CA, cat. ant-pm-2), 10% defined fetal bovine serum, heat inactivated (HyClone Laboratories Inc., Logan, UT, cat. SH30070.03HI), 50% L-WRN conditioned media (ATCC, cat. CRL-3276), 1.25 mM N-Acetyl-L-cysteine (Sigma-Aldrich, cat. A9165), 10 mM nicotinamide (Sigma-Aldrich, cat. N0636), 1X B-27 supplement (Thermo Fisher Scientific, cat. 17504044), 1X N-2 supplement (Thermo Fisher Scientific, cat. 17502048), and 10 microM Y-27632 dihydrochloride (Tocris Bioscience, Bristol, United Kingdom, cat. 1254). The 624824-186-R-J2-PDC line was cultured in 6C/Colon 1B media, which includes all 6A media components plus 50 ng/mL human EGF recombinant protein (Thermo Fisher Scientific, cat. PHG0311). […]

[1] = second compound 0.00316 µM, first compound 0.0316 µM
[2] = second compound 0.00316 µM, first compound 0.1 µM
[3] = second compound 0.01 µM, first compound 0.0316 µM
[4] = second compound 0.01 µM, first compound 0.1 µM
[5] = second compound 0.0316 µM, first compound 0.0316 µM
[6] = second compound 0.0316 µM, first compound 0.1 µM
[7] = second compound 0.1 µM, first compound 0.0316 µM
[8] = second compound 0.1 µM, first compound 0.1 µM
[9] = second compound 0.316 µM, first compound 0.0316 µM
[10] = second compound 0.316 µM, first compound 0.1 µM
[11] = second compound 1 µM, first compound 0.0316 µM
[12] = second compound 1 µM, first compound 0.1 µM
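Note: compound exposure lasted seven days before viability was read.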
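Throughout, for viability, T/C: percent of vehicle DMSO treated spheroid viability so 100% = untreated.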

With `CC(C)n1nc(-c2ccc3oc(N)nc3c2)c2c(N)ncnc21` + CC(Nc1ccc2c(c1)OCCn1cc(N3C(=O)OCC3C(F)F)nc1-2)C(N)=O the IC50 (second compound 0.00316 µM) was 0.0822 µM, the IC50 (second compound 0.01 µM) was greater than 0.1 µM and the IC50 (second compound 0.0316 µM) was 0.0646 µM. The IC50 (second compound 0.1 µM) was 0.0441 µM, the IC50 (second compound 0.316 µM) was 0.0374 µM and the IC50 (second compound 1 µM) was 0.00833 µM. It also gave a viability, T/C (second compound 0.00316 µM, first compound 0.000316 µM) of 102%, a viability, T/C (second compound 0.00316 µM, first compound 0.001 µM) of 113% and a viability, T/C (second compound 0.00316 µM, first compound 0.00316 µM) of 80.9%. For the same molecule, the viability, T/C (second compound 0.00316 µM, first compound 0.01 µM) was 87.4%, the viability, T/C [1] was 76.6% and the viability, T/C [2] was 43.5%. For the same molecule, the viability, T/C (second compound 0.01 µM, first compound 0.000316 µM) was 112%, the viability, T/C (second compound 0.01 µM, first compound 0.001 µM) was 107% and the viability, T/C (second compound 0.01 µM, first compound 0.00316 µM) was 109%. For the same molecule, the viability, T/C (second compound 0.01 µM, first compound 0.01 µM) was 62.2%, the viability, T/C [3] was 76.9% and the viability, T/C [4] was 51.9%. It also gave a viability, T/C (second compound 0.0316 µM, first compound 0.000316 µM) of 100%, a viability, T/C (second compound 0.0316 µM, first compound 0.001 µM) of 99.1% and a viability, T/C (second compound 0.0316 µM, first compound 0.00316 µM) of 94.6%. For the same molecule, the viability, T/C (second compound 0.0316 µM, first compound 0.01 µM) was 84.4%, the viability, T/C [5] was 83.8% and the viability, T/C [6] was 31.6%. The viability, T/C (second compound 0.1 µM, first compound 0.000316 µM) was 102%, the viability, T/C (second compound 0.1 µM, first compound 0.001 µM) was 96.3% and the viability, T/C (second compound 0.1 µM, first compound 0.00316 µM) was 101%. For the same molecule, the viability, T/C (second compound 0.1 µM, first compound 0.01 µM) was 86.6%, the viability, T/C [7] was 57.3% and the viability, T/C [8] was 32.6%. For the same molecule, the viability, T/C (second compound 0.316 µM, first compound 0.000316 µM) was 78.2%, the viability, T/C (second compound 0.316 µM, first compound 0.001 µM) was 91% and the viability, T/C (second compound 0.316 µM, first compound 0.00316 µM) was 61.5%. It also gave a viability, T/C (second compound 0.316 µM, first compound 0.01 µM) of 61%, a viability, T/C [9] of 61.1% and a viability, T/C [10] of 32.3%. For the same molecule, the viability, T/C (second compound 1 µM, first compound 0.000316 µM) was 50.6%, the viability, T/C (second compound 1 µM, first compound 0.001 µM) was 63.5% and the viability, T/C (second compound 1 µM, first compound 0.00316 µM) was 52%. The viability, T/C (second compound 1 µM, first compound 0.01 µM) was 49.7%, the viability, T/C [11] was 35.2% and the viability, T/C [12] was 31.3%.
With `CC1(C)CCC(CN2CCN(c3ccc(C(=O)NS(=O)(=O)c4ccc(NCC5CCOCC5)c([N+](=O)[O-])c4)c(Oc4cnc5[nH]ccc5c4)c3)CC2)=C(c2ccc(Cl)cc2)C1` + CC(Nc1ccc2c(c1)OCCn1cc(N3C(=O)OCC3C(F)F)nc1-2)C(N)=O the IC50 (second compound 0.00316 µM) was 6.27 µM, the IC50 (second compound 0.01 µM) was 6 µM and the IC50 (second compound 0.0316 µM) was 5.41 µM. It also gave an IC50 (second compound 0.1 µM) of 6 µM, an IC50 (second compound 0.316 µM) of 5.04 µM and an IC50 (second compound 1 µM) of 3.21 µM. The viability, T/C [1] was 85.9%, the viability, T/C [2] was 78.6% and the viability, T/C (second compound 0.00316 µM, first compound 0.316 µM) was 106%. For the same molecule, the viability, T/C (second compound 0.00316 µM, first compound 1 µM) was 115%, the viability, T/C (second compound 0.00316 µM, first compound 3.16 µM) was 90.3% and the viability, T/C (second compound 0.00316 µM, first compound 10 µM) was 22.5%. It also gave a viability, T/C [3] of 88.7%, a viability, T/C [4] of 95.1% and a viability, T/C (second compound 0.01 µM, first compound 0.316 µM) of 120%. It also gave a viability, T/C (second compound 0.01 µM, first compound 1 µM) of 83.1%, a viability, T/C (second compound 0.01 µM, first compound 3.16 µM) of 80.8% and a viability, T/C (second compound 0.01 µM, first compound 10 µM) of 26.8%. For the same molecule, the viability, T/C [5] was 90.5%, the viability, T/C [6] was 78.8% and the viability, T/C (second compound 0.0316 µM, first compound 0.316 µM) was 76.2%. The viability, T/C (second compound 0.0316 µM, first compound 1 µM) was 103%, the viability, T/C (second compound 0.0316 µM, first compound 3.16 µM) was 74.4% and the viability, T/C (second compound 0.0316 µM, first compound 10 µM) was 22.1%. It also gave a viability, T/C [7] of 88.5%, a viability, T/C [8] of 90.9% and a viability, T/C (second compound 0.1 µM, first compound 0.316 µM) of 84.5%. It also gave a viability, T/C (second compound 0.1 µM, first compound 1 µM) of 82%, a viability, T/C (second compound 0.1 µM, first compound 3.16 µM) of 100% and a viability, T/C (second compound 0.1 µM, first compound 10 µM) of 18.6%. It also gave a viability, T/C [9] of 69.6%, a viability, T/C [10] of 71.3% and a viability, T/C (second compound 0.316 µM, first compound 0.316 µM) of 76.3%. The viability, T/C (second compound 0.316 µM, first compound 1 µM) was 68.8%, the viability, T/C (second compound 0.316 µM, first compound 3.16 µM) was 72.7% and the viability, T/C (second compound 0.316 µM, first compound 10 µM) was 18.7%. For the same molecule, the viability, T/C [11] was 62.6%, the viability, T/C [12] was 59.7% and the viability, T/C (second compound 1 µM, first compound 0.316 µM) was 57%. It also gave a viability, T/C (second compound 1 µM, first compound 1 µM) of 65.2%, a viability, T/C (second compound 1 µM, first compound 3.16 µM) of 47.6% and a viability, T/C (second compound 1 µM, first compound 10 µM) of 20.3%.
